pIC50: −log10 of the molar value.
Test system: production of TNF by monocytes activated with bacterial lipopolysaccharide (LPS)
Assay: Lipopolysaccharide-activated monocyte TNF production assay
Assay type: cell-based
Settings: Homo sapiens; whole blood monocyte assay (LPS induced TNF release)
Method in brief: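 Adherent human PBMC-derived monocytes preincubated 60 min with nine two-fold compound dilutions, then stimulated with E. coli K532 LPS (30 ng/mL in the added medium) for 4 h at 37 °C. Supernatant TNF measured by sandwich ELISA; IC50 is the compound concentration halving TNF production, from second-order polynomial fits.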

Row | SMILES | pIC50
1 | Cc1ccc(C(=O)NC2CC2)cc1-c1ccc2c(NC(C)C)nncc2c1 [Example 172, N-cyclopropyl-3-[1-(isopropylamino)phthalazin-6-yl]-4-methylbenzamide] | ≥ 5.30
2 | Cc1ccc(C(=O)NC2CC2)cc1-c1ccc2c(N3C[C@H](C)OC[C@H]3C)nncc2c1 [Example 173, N-cyclopropyl-3-{1-[(2S,5R)-2,5-dimethylmorpholin-4-yl]phthalazin-6-yl}-4-methylbenzamide] | ≥ 5.30
3 | Cc1ccc(C(=O)NC2CC2)cc1-c1ccc2c(N3C[C@@H](C)OC[C@H]3C)nncc2c1 [Example 174, N-cyclopropyl-3-{1-[(2R,5R)-2,5-dimethylmorpholin-4-yl]phthalazin-6-yl}-4-methylbenzamide] | ≥ 5.30
4 | Cc1ccc(C(N)=O)cc1-c1ccc2c(N3CCOCC3)nncc2c1 [Example 175, 4-methyl-3-(1-morpholin-4-ylphthalazin-6-yl)benzamide] | ≥ 5.30
5 | Cc1ccc(C(N)=O)cc1-c1ccc2c(-c3ccccc3C)nncc2c1 [Example 176, 4-methyl-3-[1-(2-methylphenyl)phthalazin-6-yl]benzamide] | ≥ 5.30
6 | NC(=O)c1ccc(F)c(-c2ccc3c(N4CCOCC4)nncc3c2)c1 [Example 177, 4-fluoro-3-(1-morpholin-4-ylphthalazin-6-yl)benzamide] | ≥ 5.30
7 | Cc1ccc(C(=O)NC2CC2)cc1-c1ccc2c(N3CCOC[C@@H]3C)nncc2c1 [Example 178, N-cyclopropyl-4-methyl-3-{1-[(3S)-3-methylmorpholin-4-yl]phthalazin-6-yl}benzamide] | ≥ 5.30
8 | Cc1ccc(C(N)=O)cc1-c1ccc2c(NC(C)C)nncc2c1 [Example 179, 3-[1-(isopropylamino)phthalazin-6-yl]-4-methylbenzamide] | ≥ 5.30
9 | Cc1ccc(C(=O)NC2CC2)cc1-c1ccc2c(N3CCCC[C@H]3C)nncc2c1 [Example 180, N-cyclopropyl-4-methyl-3-{1-[(2R)-2-methylpiperidin-1-yl]phthalazin-6-yl}benzamide] | ≥ 5.30
10 | CNC(=O)c1ccc(C)c(-c2ccc3c(N4CCOCC4)nncc3c2)c1 [Example 181, N,4-dimethyl-3-(1-morpholin-4-ylphthalazin-6-yl)benzamide] | ≥ 5.30
11 | Cc1ccc(C(N)=O)cc1-c1ccc2c(N3CCCC[C@H]3C)nncc2c1 [Example 182, 4-methyl-3-{1-[(2R)-2-methylpiperidin-1-yl]phthalazin-6-yl}benzamide] | ≥ 5.30
12 | Cc1ccc(C(=O)NC2CC2)cc1-c1ccc2c(NCCN(C)C)nncc2c1 [Example 183, N-cyclopropyl-3-(1-{[2-(dimethylamino)ethyl]amino}phthalazin-6-yl)-4-methylbenzamide] | ≥ 5.30
13 | Cc1ccc(C(N)=O)cc1-c1ccc2c(N3CCOC[C@@H]3C)nncc2c1 [Example 184, 4-methyl-3-{1-[(3S)-3-methylmorpholin-4-yl]phthalazin-6-yl}benzamide] | ≥ 5.30
14 | Cc1ccc(C(N)=O)cc1-c1ccc2c(N[C@H](C)CO)nncc2c1 [Example 185, 3-(1-{[(1R)-2-hydroxy-1-methylethyl]amino}phthalazin-6-yl)-4-methylbenzamide] | ≥ 5.30
15 | CCN(CC)CCNc1nncc2cc(-c3cc(C(=O)NC4CC4)ccc3C)ccc12 [Example 186, N-cyclopropyl-3-(1-{[2-(diethylamino)ethyl]amino}phthalazin-6-yl)-4-methylbenzamide] | ≥ 5.30
16 | Cc1ccc(C(=O)NC2CC2)cc1-c1ccc2c(N(C)C)nncc2c1 [Example 187, N-cyclopropyl-3-[1-(dimethylamino)phthalazin-6-yl]-4-methylbenzamide] | ≥ 5.30
17 | COCCN(C)c1nncc2cc(-c3cc(C(=O)NC4CC4)ccc3C)ccc12 [Example 188, N-cyclopropyl-3-{1-[(2-methoxyethyl)(methyl)amino]phthalazin-6-yl}-4-methylbenzamide] | ≥ 5.30
18 | COCCNc1nncc2cc(-c3cc(C(N)=O)ccc3C)ccc12 [Example 189, 3-{1-[(2-methoxyethyl)amino]phthalazin-6-yl}-4-methylbenzamide] | ≥ 5.30
19 | COC[C@H](C)Nc1nncc2cc(-c3cc(C(N)=O)ccc3C)ccc12 [Example 190, 3-(1-{[(1S)-2-methoxy-1-methylethyl]amino}phthalazin-6-yl)-4-methylbenzamide] | ≥ 5.30
20 | Cc1ccc(C(=O)NC2CC2)cc1-c1ccc2c(N[C@@H](C)C(=O)OC(C)(C)C)nncc2c1 [Example 191, tert-butyl N-(6-{5-[(cyclopropylamino)carbonyl]-2-methylphenyl}phthalazin-1-yl)-L-alaninate] | ≥ 5.30
21 | COC[C@H](C)Nc1nncc2cc(-c3cc(C(=O)NC4CC4)ccc3C)ccc12 [Example 192, N-cyclopropyl-3-(1-{[(1S)-2-methoxy-1-methylethyl]amino}phthalazin-6-yl)-4-methylbenzamide] | ≥ 5.30

Row | SMILES | pIC50
22 | Cc1ccc(C(=O)NC2CC2)cc1-c1ccc2c(N[C@H](C)c3ccccc3)nncc2c1 [Example 193, N-cyclopropyl-4-methyl-3-(1-{[(1R)-1-phenylethyl]amino}phthalazin-6-yl)benzamide] | ≥ 5.30
23 | COCCNc1nncc2cc(-c3cc(C(=O)NC4CC4)ccc3C)ccc12 [Example 194, N-cyclopropyl-3-{1-[(2-methoxyethyl)amino]phthalazin-6-yl}-4-methylbenzamide] | ≥ 5.30
24 | Cc1ccc(S(C)(=O)=O)cc1-c1ccc2c(N3CCOCC3)nncc2c1 [Example 195, 6-[2-methyl-5-(methylsulfonyl)phenyl]-1-morpholin-4-ylphthalazine] | ≥ 5.30
25 | COc1ncncc1-c1nncc2cc(-c3cc(C(N)=O)ccc3C)ccc12 [Example 196, 3-[1-(4-methoxypyrimidin-5-yl)phthalazin-6-yl]-4-methylbenzamide] | ≥ 5.30
26 | COc1nc(N(C)C)ncc1-c1nncc2cc(-c3cc(C(=O)NC4CC4)ccc3C)ccc12 [Example 197, N-cyclopropyl-3-{1-[2-(dimethylamino)-4-methoxypyrimidin-5-yl]phthalazin-6-yl}-4-methylbenzamide] | ≥ 5.30
27 | COc1cccc(-c2nncc3cc(-c4cc(C(N)=O)ccc4C)ccc23)c1OC [Example 198, 3-[1-(2,3-dimethoxyphenyl)phthalazin-6-yl]-4-methylbenzamide] | ≥ 5.30
28 | Cc1ccc(C(N)=O)cc1-c1ccc2c(-c3ccc(C(F)(F)F)cc3Cl)nncc2c1 [Example 199, 3-{1-[2-chloro-4-(trifluoromethyl)phenyl]phthalazin-6-yl}-4-methylbenzamide] | ≥ 5.30
29 | COc1c(C)cccc1-c1nncc2cc(-c3cc(C(=O)NC4CC4)ccc3C)ccc12 [Example 201, N-cyclopropyl-3-[1-(2-methoxy-3-methylphenyl)phthalazin-6-yl]-4-methylbenzamide] | ≥ 5.30
30 | COc1ccc(-c2nncc3cc(-c4cc(C(N)=O)ccc4C)ccc23)c(C)c1 [Example 202, 3-[1-(4-methoxy-2-methylphenyl)phthalazin-6-yl]-4-methylbenzamide] | ≥ 5.30
31 | Cc1ccc(C(N)=O)cc1-c1ccc2c(-c3ccc(CN4CCOCC4)cc3)nncc2c1 [Example 203, 4-methyl-3-{1-[4-(morpholin-4-ylmethyl)phenyl]phthalazin-6-yl}benzamide] | ≥ 5.30
32 | COc1c(C)cccc1-c1nncc2cc(-c3cc(C(N)=O)ccc3C)ccc12 [Example 204, 3-[1-(2-methoxy-3-methylphenyl)phthalazin-6-yl]-4-methylbenzamide] | ≥ 5.30
33 | Cc1ccc(C(=O)NC2CC2)cc1-c1ccc2c(-c3ccc(C(C)(C)C(=O)O)cc3)nncc2c1 [Example 205, 2-[4-(6-{5-[(cyclopropylamino)carbonyl]-2-methylphenyl}phthalazin-1-yl)phenyl]-2-methylpropanoic acid] | ≥ 5.30
34 | CNc1ccc(-c2nncc3cc(-c4cc(C(=O)NC5CC5)ccc4C)ccc23)c(OC)n1 [Example 206, N-cyclopropyl-3-{1-[2-methoxy-6-(methylamino)pyridin-3-yl]phthalazin-6-yl}-4-methylbenzamide] | ≥ 5.30
35 | COc1ccc(-c2nncc3cc(-c4cc(C(=O)NC5CC5)ccc4C)ccc23)c(C)n1 [Example 207, N-cyclopropyl-3-[1-(6-methoxy-2-methylpyridin-3-yl)phthalazin-6-yl]-4-methylbenzamide] | ≥ 5.30
36 | Cc1ccc(C(=O)NC2CC2)cc1-c1ccc2c(-c3ccc(-c4ccc(Cl)cc4)cc3)nncc2c1 [Example 208, 3-[1-(4′-chloro-1,1′-biphenyl-4-yl)phthalazin-6-yl]-N-cyclopropyl-4-methylbenzamide] | ≥ 5.30
37 | Cc1ccc(C(=O)NC2CC2)cc1-c1ccc2c(-c3ccc(Cl)cc3)nncc2c1 [Example 209, 3-[1-(4-chlorophenyl)phthalazin-6-yl]-N-cyclopropyl-4-methylbenzamide] | ≥ 5.30
38 | Cc1ccc(C(=O)NC2CC2)cc1-c1ccc2c(-c3ccc(Cl)cc3C(F)(F)F)nncc2c1 [Example 210, 3-{1-[4-chloro-2-(trifluoromethyl)phenyl]phthalazin-6-yl}-N-cyclopropyl-4-methylbenzamide] | ≥ 5.30
39 | Cc1ccc(-c2nncc3cc(-c4cc(C(N)=O)ccc4C)ccc23)c(Cl)n1 [Example 211, 3-[1-(2-chloro-6-methylpyridin-3-yl)phthalazin-6-yl]-4-methylbenzamide] | ≥ 5.30
40 | Cc1ccc(-c2nncc3cc(-c4cc(C(=O)NC5CC5)ccc4C)ccc23)c(Cl)n1 [Example 212, 3-[1-(2-chloro-6-methylpyridin-3-yl)phthalazin-6-yl]-N-cyclopropyl-4-methylbenzamide] | ≥ 5.30
41 | COc1cc(F)ccc1-c1nncc2cc(-c3cc(C(N)=O)ccc3C)ccc12 [Example 213, 3-[1-(4-fluoro-2-methoxyphenyl)phthalazin-6-yl]-4-methylbenzamide] | ≥ 5.30
42 | Cc1ccc(C(N)=O)cc1-c1ccc2c(-c3ccc(S(C)(=O)=O)cc3)nncc2c1 [Example 214, 4-methyl-3-{1-[4-(methylsulfonyl)phenyl]phthalazin-6-yl}benzamide] | ≥ 5.30
